Assay results from patent US11578343B2, “CAS9 proteins including ligand-dependent inteins” (President and Fellows of Harvard College, priority 2014, dated 2023).

Assays:
Assay type in all cases: cell-based, human
[1] = system: HEK293-GFP stable cells; test: Effect of 4-HT on cellular toxicity (live cell population, TO-PRO-3 stain, flow cytometry); conditions: 12 or 60 h of treatment with 1 μM 4-HT; untransfected or transfected HEK293 cells; FIG. 5
Description: FIG. 5. Effect of 4-HT on cellular toxicity. Untransfected HEK293-GFP stable cells, and cells transfected with intein-Cas9(5219) and sgRNA expression plasmids, were treated with or without 4-HT (1 μM). 12 h after transfection, the media was replaced with full serum media, with or without 4-HT (1 μM). Cells were thus exposed to 4-HT for 0, 12, or 60 h. The live cell population was determined by flow cytometry 60 h after transfection using TO-PRO-3 stain (Life Technologies). Error bars reflect the standard deviation of six technical replicates.
We assayed these Cas9:sgRNA combinations in human cells for their ability to modify the three on-target loci as well as 11 known off-target genomic sites (Table 3)^4,5,10,13. Cells were treated with or without 1 μM 4-HT during transfection, and after 12 h the media was replaced with fresh media lacking 4-HT. […] Genomic DNA was isolated 60 h post-transfection and analyzed by high-throughput DNA sequencing

[2] = system: genomic EGFP locus; test: Genomic EGFP disruption in HEK293-GFP stable cells (loss of GFP by flow cytometry); conditions: for Loss of GFP expression / nuclease activity, in words: with or without 1 μM 4-HT, FIG. 3c
Description: HEK293-GFP stable cells were transfected with the Cas9 expression plasmid, a gRNA (targeting Emerald GFP; Guilinger et al., Nature Biotechnology (2014)), and iRFP670 (transfection control), using Lipofectamine 2000. Twelve hours after transfection, media, either containing 4-HT (1 μM) or without 4-HT, was added.
Five days after transfection, cells were trypsinized and analyzed on a flow cytometer. Cells lacking GFP indicated genome modification. Cas9 variants that induced minimal genome modification in the absence of 4-HT but induce significant genome modification in the presence of 4-HT were deemed small-molecule-regulated variants in this Example.
Additionally, a time course was performed in which incubation with 4-HT was limited to 2, 4, 8, 12 or 24 hours, after which point the media was replaced.
We genetically inserted the 4-HT-dependent intein at each of fifteen positions in Cas9 (Cys80, Ala127, Thr146, Ser219, Thr333, Thr519, Cys574, Thr622, Ser701, Ala728, Thr995, Ser1006, Ser1154, Ser1159, and Ser1274), chosen to distribute the location of the intein across the structural domains of Cas9^23 (FIG. 3b and Example 1). Because intein splicing leaves behind a single Cys residue, the intein was inserted in place of one Cas9 amino acid in each of the 15 candidate constructs. In addition to replacing natural Cys amino acids, we also favored replacing Ala, Ser, or Thr residues to minimize the likelihood that the resulting Cys point mutation resulting from protein splicing would disrupt Cas9 activity. The 15 intein-Cas9 candidates were expressed in HEK293-GFP cells together with a sgRNA that targets the genomic EGFP locus in these cells. Twelve hours post-transfection, cells were treated with or without 1 μM 4-HT. Five days post-transfection, cells were analyzed on a flow cytometer for loss of GFP expression from Cas9-mediated EGFP cleavage and subsequent non-homologous end joining.
Modification of genomic GFP. HEK293-GFP stable cells (GenTarget), which constitutively express Emerald GFP, served as the reporter cell line. Cells were maintained in “full serum media”: Dulbecco's Modified Eagle's Media plus GlutaMax (Life Technologies) with 10% (vol/vol) FBS and penicillin/streptomycin (1×, Amresco). 5×10^4 cells were plated on 48-well collagen-coated Biocoat plates (Becton Dickinson). 16-18 h after plating, cells were transfected with Lipofectamine 2000 (Life Technologies) according to the manufacturer's protocol. Briefly, 1.5 μL of Lipofectamine 2000 was used to transfect 650 ng of total plasmid: 500 ng Cas9 expression plasmid, 125 ng sgRNA expression plasmid, and 25 ng near-infrared iRFP670 expressing plasmid (Addgene plasmid 45457)^26. 12 h after transfection, the media was replaced with full serum media, with or without 4-HT (1 μM, Sigma-Aldrich T176). The media was replaced again 3-4 days after transfection. Five days after transfection, cells were trypsinized and resuspended in full serum media and analyzed on a C6 flow cytometer (Accuri) with a 488-nm laser excitation and 520-nm filter with a 20-nm band pass. Transfections and flow cytometry measurements were performed in triplicate.

[3] = system: genomic EGFP locus; test: as above; conditions: FIG. 12
[4] = +4-HT 2 hrs, then media replaced, Table 2
[5] = +4-HT 4 hrs, then media replaced, Table 2
[6] = +4-HT 8 hrs, then media replaced, Table 2
[7] = +4-HT 12 hrs, then media replaced, Table 2
[8] = +4-HT 24 hrs, then media replaced, Table 2
[9] = +4-HT (1 μM, added 12 h after transfection), five days after transfection, Table 1
[10] = −4-HT, five days after transfection, Table 1

## 4-hydroxytamoxifen [4-HT]
[1]
  Cellular toxicity: no cellular toxicity

## intein(Ala127)-Cas9: Cas9 with 37R3-2 intein replacing Ala127 (SEQ ID NO: 28)
[2]; [4]
  Cells without GFP (%): 18.95%
[2]; [5]
  Cells without GFP (%): 18.57%
[2]; [6]
  Cells without GFP (%): 18.64%
[2]; [7]
  Cells without GFP (%): 18.35%
[2]; [8]
  Cells without GFP (%): 16.83%
[2]; [9]
  Cells without GFP (%): 19.73%
[2]
  Loss of GFP expression / nuclease activity, in words: 4-HT-dependent loss of GFP expression
[2]; [10]
  Cells without GFP (%): 7.97%
[2]; −4-HT, time course, Table 2
  Cells without GFP (%): 5.03%

## intein(Ala728)-Cas9: Cas9 with 37R3-2 intein replacing Ala728 (SEQ ID NO: 36)
[2]; [9]
  Cells without GFP (%): 41.89%
[2]
  Loss of GFP expression / nuclease activity, in words: high DNA modification rates both in the presence and absence of 4-HT
[2]; [10]
  Cells without GFP (%): 20.82%

## intein(Cys80)-Cas9: Cas9 with 37R3-2 intein replacing Cys80 (SEQ ID NO: 27)
[2]; [9]
  Cells without GFP (%): 4.96%
[2]
  Loss of GFP expression / nuclease activity, in words: lack of nuclease activity
[2]; [10]
  Cells without GFP (%): 7.08%

## intein(Ser701)-Cas9: Cas9 with 37R3-2 intein replacing Ser701 (SEQ ID NO: 35)
[2]; [9]
  Cells without GFP (%): 9.56%
[2]
  Loss of GFP expression / nuclease activity, in words: lack of nuclease activity
[2]; [10]
  Cells without GFP (%): 6.54%

## intein(Ser1006)-Cas9: Cas9 with 37R3-2 intein replacing Ser1006 (SEQ ID NO: 38)
[2]; [9]
  Cells without GFP (%): 12.61%
[2]
  Loss of GFP expression / nuclease activity, in words: 4-HT-dependent loss of GFP expression
[2]; [10]
  Cells without GFP (%): 6.80%

## intein(Ser1154)-Cas9: Cas9 with 37R3-2 intein replacing Ser1154 (SEQ ID NO: 39)
[2]; [9]
  Cells without GFP (%): 41.94%
[2]
  Loss of GFP expression / nuclease activity, in words: high DNA modification rates both in the presence and absence of 4-HT
[2]; [10]
  Cells without GFP (%): 21.14%

## intein(Ser1159)-Cas9: Cas9 with 37R3-2 intein replacing Ser1159 (SEQ ID NO: 40)
[2]; [9]
  Cells without GFP (%): 13.21%
[2]
  Loss of GFP expression / nuclease activity, in words: 4-HT-dependent loss of GFP expression
[2]; [10]
  Cells without GFP (%): 5.65%

## intein(Ser1274)-Cas9: Cas9 with 37R3-2 intein replacing Ser1274 (SEQ ID NO: 41)
[2]; [9]
  Cells without GFP (%): 5.00%
[2]
  Loss of GFP expression / nuclease activity, in words: lack of nuclease activity
[2]; [10]
  Cells without GFP (%): 3.08%

## intein(Thr146)-Cas9: Cas9 with 37R3-2 intein replacing Thr146 (SEQ ID NO: 29)
[2]; [4]
  Cells without GFP (%): 16.29%
[2]; [5]
  Cells without GFP (%): 15.07%
[2]; [6]
  Cells without GFP (%): 13.65%
[2]; [7]
  Cells without GFP (%): 14.44%
[2]; [8]
  Cells without GFP (%): 19.57%
[2]; [9]
  Cells without GFP (%): 21.60%
[2]
  Loss of GFP expression / nuclease activity, in words: 4-HT-dependent loss of GFP expression
[2]; [10]
  Cells without GFP (%): 8.77%
[2]; −4-HT, time course, Table 2
  Cells without GFP (%): 4.28%

## intein(Thr333)-Cas9: Cas9 with 37R3-2 intein replacing Thr333 (SEQ ID NO: 31)
[2]; [9]
  Cells without GFP (%): 9.17%
[2]
  Loss of GFP expression / nuclease activity, in words: 4-HT-dependent loss of GFP expression
[2]; [10]
  Cells without GFP (%): 4.96%

## intein(Thr519)-Cas9: Cas9 with 37R3-2 intein replacing Thr519 (SEQ ID NO: 32)
[2]; [4]
  Cells without GFP (%): 14.55%
[2]; [5]
  Cells without GFP (%): 13.98%
[2]; [6]
  Cells without GFP (%): 14.74%
[2]; [7]
  Cells without GFP (%): 13.93%
[2]; [8]
  Cells without GFP (%): 18.04%
[2]; [9]
  Cells without GFP (%): 25.96%
[2]
  Loss of GFP expression / nuclease activity, in words: 4-HT-dependent loss of GFP expression
[2]; [10]
  Cells without GFP (%): 9.49%
[2]; −4-HT, time course, Table 2
  Cells without GFP (%): 4.29%

## intein(Thr622)-Cas9: Cas9 with 37R3-2 intein replacing Thr622 (SEQ ID NO: 34)
[2]; [9]
  Cells without GFP (%): 3.96%
[2]
  Loss of GFP expression / nuclease activity, in words: lack of nuclease activity
[2]; [10]
  Cells without GFP (%): 5.67%

## intein(Thr995)-Cas9: Cas9 with 37R3-2 intein replacing Thr995 (SEQ ID NO: 37)
[2]; [9]
  Cells without GFP (%): 21.39%
[2]
  Loss of GFP expression / nuclease activity, in words: high DNA modification rates both in the presence and absence of 4-HT
[2]; [10]
  Cells without GFP (%): 14.95%

## intein-Cas9(5219-G521R): intein-Cas9(S219) with point mutation G521R in the estrogen receptor ligand-binding domain (probably SEQ ID NO: 166)
[3]
  Ability of β-estradiol to trigger Cas9 activity (genomic EGFP disruption): eliminates the ability of β-estradiol to trigger Cas9 activity
